Where two headings read alike, the source gives them in different places.
Tests used:
[1] = test system: Pythium ultimum; experiment: Amended agar assay (potato dextrose agar), reduction in colony growth; format: cell-based; settings: for inhibition of growth at 20 ppm / EC50: Globisporangium ultimum; for inhibition of growth at 20 ppm / control over the fungal pathogens tested (in words): Pythium ultimum, primary screen at 20 ppm; for inhibition of growth at 20 ppm: read-out: % control at 20 ppm; for EC50: read-out: Pythium ultimum (EC50)
Protocol: (§1) Testing was carried out on potato dextrose agar (PDA) amended with each compound at test concentrations of 20, 4 and 0.8, 0.16 and 0.032 ppm. Amended agar at each test concentration was poured into three replicate 9 cm petri dishes. Each replicate dish was inoculated in the centre with a 5 mm agar plug taken from the leading edge of a culture aged between 2 and 7 days old; the age of the culture was dependant on the growth rate of the pathogen being tested. The test pathogens were Pythium ultimum and Phytophthora cinnamomi. Plates were incubated at 18° C. and the diameter of each colony measured before growth on the fastest growing plate reached the plate edge. This varied between 2 and 7 days depending on the growth rate of test pathogens. The % reduction in colony growth compared to the control was calculated for each test concentration and pathogen combination.
(§2) The results are shown in Table 1 in which * represents an average control of up to 50% at said dosage; ** represents an average control of 50% or greater but less than 80% at said dosage; and *** represents an average control of 80% or greater at said dosage.
(§3) A primary screen was also conducted for a number of other compounds of the invention. The screen was conducted at 20 ppm and the results are provided in Table 2, in which D represents no control detected at this concentration; C represents up to 50% control; B from 50 to 99% control; and A represents a control of greater than 99%.
(§4) Alternatively, or in addition, the same assay was conducted at descending test concentrations with 5-fold dilutions typically down to 0.032 ppm, and an EC50 (the concentration at which 50% control would be achieved) was determined. The results are provided in Table 1 in which G represents an EC50 above 20 ppm, F represents an EC50 of 2-20 ppm and E represents and EC50 less than 2 ppm.

[2] = test system: Phytophthora cinnamomi; experiment: as above; format: cell-based; settings: for EC50: read-out: Phytophthora cinnamomi (EC50); for inhibition of growth at 20 ppm / control over the fungal pathogens tested (in words): primary screen at 20 ppm; for inhibition of growth at 20 ppm: read-out: % control at 20 ppm
Protocol: as §1, §2, §3, §4

[3] = descending test concentrations, 5-fold dilutions typically down to 0.032 ppm

Structure (SMILES)	inhibition of growth at 20 ppm [1]	EC50 [1, 3]	EC50 [2, 3]	inhibition of growth at 20 ppm [2]	further results
Cc1cccnc1-n1c(OCc2cccc(NC(=O)C(F)(F)Oc3ccccc3)n2)nc2ccccc21 [Example 3]	50 to 99%	< 2 µg/mL	< 2 µg/mL	50 to 99%	–
Cn1nccc1-n1c(OCc2cccc(NC(=O)C(F)(F)Oc3ccccc3)n2)nc2ccccc21 [Example 4]	50 to 99%	< 2 µg/mL	< 2 µg/mL	50 to 99%	–
Cc1noc(-n2c(OCc3cccc(NC(=O)C(F)(F)Oc4ccccc4)n3)nc3ccccc32)c1C [Example 5, N-(6-(((1-(3,4-Dimethylisoxazol-5-yl)-1H-benzo[d]imidazol-2-yl)oxy)methyl)pyridin-2-yl)-2,2-difluoro-2-phenoxyacetamide]	50 to 99%	–	–	< 50%	–
Cn1nnnc1-n1c(OCc2cccc(NC(=O)C(F)(F)Oc3ccccc3)n2)nc2ccc(F)cc21 [Example 6]	> 99%	< 2 µg/mL	< 2 µg/mL	> 99%	control over the fungal pathogens tested (in words) [1]: excellent control; control over the fungal pathogens tested (in words) [2]: excellent control
O=C(Nc1cccc(COc2nc3ccccc3n2-c2ccccn2)n1)C(F)(F)Oc1ccccc1 [Example 7]	–	> 20 µg/mL	> 20 µg/mL	–	–
O=C(Nc1cccc(COc2nc3ccccc3n2-c2ccon2)n1)C(F)(F)Oc1ccccc1 [Example 9]	–	> 20 µg/mL	> 20 µg/mL	–	–
CC(=O)Nc1cccc(COc2nc3ccccc3n2-c2nnnn2C)n1 [Example 10, N-(6-(((1-(1-Methyl-1H-tetrazol-5-yl)-1H-benzo[d]imidazol-2-yl)oxy)methyl)pyridin-2-yl)acetamide]	45 to 55%	–	–	50 to 99%	–
CCOC(=O)Nc1cccc(COc2nc3ccccc3n2-c2nnnn2C)n1 [Example 11, Ethyl (6-(((1-(1-methyl-1H-tetrazol-5-yl)-1H-benzo[d]imidazol-2-yl)oxy)methyl)pyridin-2-yl)carbamate]	> 99%	< 2 µg/mL	< 2 µg/mL	50 to 99%	control over the fungal pathogens tested (in words) [1]: excellent control; control over the fungal pathogens tested (in words) [2]: excellent control
Cn1nnnc1-n1c(OCc2cccc(NC(=O)OC3CCCC3)n2)nc2ccccc21 [Example 12]	–	< 2 µg/mL	< 2 µg/mL	–	–
CCCCOC(=O)Nc1cccc(COc2nc3ccccc3n2-c2nnnn2C)n1 [Example 13]	–	< 2 µg/mL	< 2 µg/mL	–	–
Cn1nnnc1-n1c(OCc2cccc(NC(=O)OCc3ccccc3)n2)nc2ccccc21 [Example 14]	–	< 2 µg/mL	< 2 µg/mL	–	–
Cn1nnnc1-n1c(OCc2cccc(NC(=O)Oc3ccccc3)n2)nc2ccccc21 [Example 15]	–	–	–	–	EC50 [1]: < 2 µg/mL; EC50 [2]: < 2 µg/mL
CCCCCOC(=O)Nc1cccc(COc2nc3ccccc3n2-c2nnnn2C)n1 [Example 16]	–	< 2 µg/mL	< 2 µg/mL	–	–
CC(C)OC(=O)Nc1cccc(COc2nc3ccccc3n2-c2nnnn2C)n1 [Example 17]	–	< 2 µg/mL	< 2 µg/mL	–	–
CC(C)COC(=O)Nc1cccc(COc2nc3ccccc3n2-c2nnnn2C)n1 [Example 18]	–	< 2 µg/mL	< 2 µg/mL	–	–
C=CCOC(=O)Nc1cccc(COc2nc3ccccc3n2-c2nnnn2C)n1 [Example 19]	–	< 2 µg/mL	< 2 µg/mL	–	–
COCCOC(=O)Nc1cccc(COc2nc3ccccc3n2-c2nnnn2C)n1 [Example 20]	–	< 2 µg/mL	< 2 µg/mL	–	–
CCCOC(=O)Nc1cccc(COc2nc3ccccc3n2-c2nnnn2C)n1 [Example 21]	–	< 2 µg/mL	< 2 µg/mL	–	–
Cn1nnnc1-n1c(OCc2cccc(NC(=O)CC3CCCC3)n2)nc2ccccc21 [Example 22, 2-Cyclopentyl-N-(6-(((1-(1-methyl-1H-tetrazol-5-yl)-1H-benzo[d]imidazol-2-yl)oxy)methyl)pyridin-2-yl)acetamide]	–	< 2 µg/mL	< 2 µg/mL	–	–
Cn1nnnc1-n1c(OCc2cccc(NC(=O)C3CCCC3)n2)nc2ccccc21 [Example 23]	–	< 2 µg/mL	< 2 µg/mL	–	–

Reference: patent publication US11641858B2, “Agricultural chemicals” (Redag Crop Protection Ltd, priority 2016, dated 2023)
